How the values were obtained:
Type in all cases: cell-based, human
COL2A1 = COL2A1 mRNA time course in C-28/I2 chondrocytes; conditions: by 2 h
COL2A1 promoter = test: COL2A1 promoter/intron deletion constructs, transient transfection in C-28/I2 cells; conditions: all five constructs -577, -530, -403, -131, -83/+127 bp, 18 h
Protocol: The COL2A1 sequence spanning −577 to +3428 bp (Goldring M B, et al, J Cell Biochem 1994;54:85-99, 39) was cloned into the pGL2-basic (pGL2B) luciferase reporter gene vector (Promega,) and named pGL2-COL2/4.0. Deletion constructs containing −577/+125 bp, −131/+125 bp, −87/+125 bp were prepared by enzyme digestion of pGL2-COL2/4.0 using PstI, ApaI, and PuuII, followed by ligation. For the deletion constructs −45/+125 bp, −83/+7 bp, and −45/+7 bp, PCR products were generated as described (Osaki et al.) and cloned into the pGL2-Basic luciferase vector. These reporter constructs were used as templates to generate point mutations or internal deletions by PCR mutagenesis employing the oligonucleotides listed in FIG. 16 and the QuikChange™ Site-Directed Mutagenesis Kit (Stratagene, La Jolla, Calif.). DNA fragments containing point mutations were then cloned into the pGL2B vector and confirmed by DNA sequencing using a G2 primer on pGL2 DNA. Deletions were also made in the −577/+127 bp COL2A1 promoter construct using the ExSite™ PCR-Based Site-Directed Mutagenesis Kit (Stratagene).
Transient transfection experiments were carried out in C-28/I2 cells using LipofectAMINE PLUS™ Reagent (Life Technologies). Cells were seeded in 6-well tissue culture plates at 3.5×10^5 cells/well in DMEM/F12 containing 10% FCS 24 h prior to transfection. For each well, 1 μg of COL2A1-luciferase construct, 6 μl of PLUS reagent and 92 μl of serum-free DMEM/F12 were mixed and incubated for 15 min at room temperature. LipofectAMINE+ reagent (4 μl) in 100 μl of serum-free medium was then added to each reaction mixture and incubation was continued for an additional 30 min at room temperature. Finally, the transfection mixture was combined with 800 μl of serum-free medium and the lipid-nucleic acid complex was transferred to the washed cell monolayer in each well. After incubation for 4 h at 37° C., the transfection mix was diluted with an equal volume of DMEM/F12 containing 2% Nutridoma-SP, and incubation continued for 18 h in the absence or presence of IL-1β. […] Cell lysates were prepared by extraction with 200 μl of Reporter Lysis Buffer (Promega) and the protein content was determined using the Coomassie Plus Protein Assay Reagent (PIERCE). Luciferase activities were determined by chemiluminescence assay using the Autolumat LB953 luminometer (EG&G Berthold, Oak Ridge, Tenn.), normalized to the amount of protein. Each data point was calculated as the mean±standard deviation for three independently transfected cultures from one representative of at least three experiments. […]
To localize the responses to IL-1β and ESE-1 in the COL2A1 promoter, we made several 5′-deletions of the −577/+127 bp promoter construct, which we had previously determined to be responsive to IL-1β.

ESE-1 [1] = test: ESE-1 mRNA RT-PCR in immortalized chondrocytes T/C28a2, C28/I2, C20/A4; conditions: T/C28a2, C28/I2 and C20/A4 chondrocytes; 24 hours
Protocol: (§1) U-87 Mg and U-138 Mg (human glioma), THP-1 (human monocytic), RAW 264.7 (murine monocytic), LB-12 (human osteoblast-like large T antigen transformed bone marrow stromal cells), and human chondrocytes were grown and treated with cytokines as described (Apperley, J., et al. 1990. J Bone Mineral Res. 5:S93; Goldring, M. B., et al. 1994. J Clin Invest 94:2307-16; Goldring, S. R., et al. 1983. J Bone Joint Surg 65:575-84; Libermann, T. A., et al. 1987. Embo J. 6:1627-1632).
(§2) cDNAs were generated from 1 μg of total RNA using Ready-To-Go™ You-prime First-Strand Beads (Amersham Pharmacia Biotech Inc). RT-PCR amplifications of 0.1 μg cDNA were carried out using a MJResearch thermal cycler PTC-100 as follows: 5 min at 94° C., 20-37 cycles of 30 sec at 94° C., 30 sec at 56° C., and 30 sec at 72° C., followed by 5 min at 72° C. (Oettgen, P., et al. 2000, J Biol Chem 275:1216-25). The sequences of the human ESE-1 primers and the primers for human GAPDH were as described (Oettgen, P., et al. 1999, J Biol Chem 274:29439-52).
To test the hypothesis that ESE-1 is a mediator of cytokine responses in non-epithelial cell types, we analyzed ESE-1 expression in response to a variety of cytokines in several connective tissue cell types. Immortalized human chondrocytes, T/C28a2, C28/I2, and C20/A4 (Goldring, M. B., et al. 1994, J Clin Invest 94:2307-16), were stimulated with IL-1β, TNF-α and IFN-γ for 24 hours. […] The kinetics of ESE-1 induction was explored in a time course experiment with T/ C28a2 chondrocytes.

ESE-1 [2] = test: ESE-1 mRNA RT-PCR in glioma cells (U-138 MG, U-373 MG); conditions: U-138 MG and U-373 MG glioma cells
Protocol: as §1, §2
U-138 MG cells were infected with the IκB adenovirus (kindly provided by Fionula Brennan) (Bondeson, J., et al. 1999, Proc Natl Acad Sci U S A 96:5668-73) for 1 hour in serum-free medium using a multiple of infection of 1000. After infection the cells were washed with medium and incubated for 16 hours in DMEM containing 10% fetal calf serum in the absence or presence of IL-1β. […]

## IL-1β: interleukin-1 beta, proinflammatory cytokine
COL2A1
  COL2A1 mRNA levels: strongly inhibited
COL2A1 promoter
  inhibition of COL2A1 promoter constructs: at least 50%
ESE-1 [1]
  ESE-1 expression: induced ESE-1 expression in all chondrocyte cell lines
ESE-1 [2]
  ESE-1 expression: rapidly induced transient expression
